Laboratory results reported in PMC4496362, “Potentiating the cellular targeting and anti-tumor activity of Dp44mT via binding to human serum albumin: two saturable mechanisms of Dp44mT uptake by cells” (Oncotarget, 2015).

Legend:
Assay type in all cases: binding
Details in all cases: read-out: % released into dialysate
[1] = target: T1, human serum albumin (HSA) (Homo sapiens, UniProt P02768); assay: equilibrium dialysis with […]-ligand; Trp-214 fluorescence quenching
T1 construct: gene ALB

[2] = target: T2, bovine serum albumin (BSA) (Bos taurus, UniProt P02769); assay: equilibrium dialysis with […]-ligand (weak retention)
T2 construct: gene ALB

[3] = target: T2, bovine serum albumin (BSA); assay: equilibrium dialysis with […]-ligand

T1 sequence (P02768 25-609): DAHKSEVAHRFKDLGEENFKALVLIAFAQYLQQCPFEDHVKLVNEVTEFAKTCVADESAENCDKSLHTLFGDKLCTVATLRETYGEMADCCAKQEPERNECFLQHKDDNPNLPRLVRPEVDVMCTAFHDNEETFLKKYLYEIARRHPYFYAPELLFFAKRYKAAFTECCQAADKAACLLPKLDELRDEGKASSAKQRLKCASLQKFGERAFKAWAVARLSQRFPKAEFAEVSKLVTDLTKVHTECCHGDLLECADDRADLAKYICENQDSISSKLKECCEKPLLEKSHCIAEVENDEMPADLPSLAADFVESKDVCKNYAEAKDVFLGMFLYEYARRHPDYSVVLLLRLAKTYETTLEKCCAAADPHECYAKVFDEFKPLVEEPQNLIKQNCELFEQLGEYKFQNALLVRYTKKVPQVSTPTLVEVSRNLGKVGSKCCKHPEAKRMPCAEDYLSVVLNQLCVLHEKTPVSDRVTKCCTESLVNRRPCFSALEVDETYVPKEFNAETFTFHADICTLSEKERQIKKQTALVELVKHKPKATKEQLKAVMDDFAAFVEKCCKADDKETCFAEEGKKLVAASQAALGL
T2 sequence (P02769 25-607): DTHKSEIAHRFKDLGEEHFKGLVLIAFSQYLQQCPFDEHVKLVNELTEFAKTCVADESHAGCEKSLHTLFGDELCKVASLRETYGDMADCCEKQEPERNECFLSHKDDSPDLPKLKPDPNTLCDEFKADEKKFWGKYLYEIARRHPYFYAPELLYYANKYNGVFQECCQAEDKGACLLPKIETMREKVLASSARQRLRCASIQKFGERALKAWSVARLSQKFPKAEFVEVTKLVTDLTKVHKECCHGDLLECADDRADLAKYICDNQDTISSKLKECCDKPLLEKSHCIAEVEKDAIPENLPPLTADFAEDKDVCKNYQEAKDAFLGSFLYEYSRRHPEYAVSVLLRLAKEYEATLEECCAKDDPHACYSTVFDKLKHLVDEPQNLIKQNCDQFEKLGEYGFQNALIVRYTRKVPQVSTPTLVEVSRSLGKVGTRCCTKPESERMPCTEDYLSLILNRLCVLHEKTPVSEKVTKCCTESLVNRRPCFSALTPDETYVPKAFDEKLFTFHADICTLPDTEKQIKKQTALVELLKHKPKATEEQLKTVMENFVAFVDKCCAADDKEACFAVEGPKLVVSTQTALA

| fraction unbound [1] | fraction unbound [3] | Compound | fraction unbound [2] |
| --- | --- | --- | --- |
| 0.22 ± 0.01 | 0.21 ± 0.005 | CN(C)C(=S)NN=C(c1ccccn1)c1ccccn1 [Dp44mT, di-2-pyridylketone 4,4-dimethyl-3-thiosemicarbazone] |  |
| 0.04 ± 0.003 | 0.09 ± 0.003 | CCNC(=S)N/N=C(\c1ccccc1)c1ccccn1 [Bp4eT, 2-benzoylpyridine 4-ethyl-3-thiosemicarbazone] |  |

| Compound | fraction unbound [1] | fraction unbound [3] | fraction unbound [2] |
| --- | --- | --- | --- |
| Cc1ncc(CO)c(C=NNC(=O)c2ccncc2)c1O [PIH, pyridoxal isonicotinoyl hydrazone] | 0.06 ± 0.003 |  | 0.39 ± 0.003 |
